Measurements as given in patent publication US11414413B2, “Heterocyclic compound as JAK inhibitor, and salts and therapeutic use thereof” (Suzhou Longbiotech Pharmaceuticals Co., Ltd., priority 2016, dated 2022).

Columns and labels:
Type in all cases: biochemical
JAK2 = JAK2 (Homo sapiens (Human), UniProt O60674); assay: Inhibition of JAK2, luminescence kinase assay (ADP-Glo); conditions: purified recombinant JAK2
Method: (§1) The study of the effect of compounds on the activity of purified recombinant JAK was performed by studying the inhibitory activity of the compounds on JAK from the enzymatic level. The experimental principle is to use a luminescence kinase assay to detect the ADP content produced by the reaction of JAK with the substrate Poly (4:1 Glu, Tyr) peptide: after ADP is converted to ATP, ATP can act as a substrate for the Ultra-Glo luciferase catalytic reaction, producing an optical signal. The luminescence signal is positively correlated with the amount of ADP and kinase activity. Therefore, the inhibitory effect of the compounds on the recombinant JAK was determined by observing the luminescence signal produced by the reaction of JAK and the substrate, and was expressed by IC50.
(§2) Experimental method: 10 different concentrations of compounds were incubated with JAK1, JAK2 and JAK3, respectively, for 60 minutes at 37° C. The substrate and ATP were then added, mixed, and reacted at 37° C. for 50 minutes. 25 μl of ADP-Glo™ was added and mixed for 2 minutes. The reaction was carried out for 50 minutes at room temperature. Further, 50 μl of the detection reagent was added and mixed for 2 minutes, and incubated at room temperature for 50 minutes, and detected by a chemiluminometer.

JAK1 = JAK1 (Homo sapiens (Human), UniProt P23458); assay: Inhibition of JAK1, luminescence kinase assay (ADP-Glo); conditions: purified recombinant JAK1
Sequence of JAK1 (P23458 whole entry): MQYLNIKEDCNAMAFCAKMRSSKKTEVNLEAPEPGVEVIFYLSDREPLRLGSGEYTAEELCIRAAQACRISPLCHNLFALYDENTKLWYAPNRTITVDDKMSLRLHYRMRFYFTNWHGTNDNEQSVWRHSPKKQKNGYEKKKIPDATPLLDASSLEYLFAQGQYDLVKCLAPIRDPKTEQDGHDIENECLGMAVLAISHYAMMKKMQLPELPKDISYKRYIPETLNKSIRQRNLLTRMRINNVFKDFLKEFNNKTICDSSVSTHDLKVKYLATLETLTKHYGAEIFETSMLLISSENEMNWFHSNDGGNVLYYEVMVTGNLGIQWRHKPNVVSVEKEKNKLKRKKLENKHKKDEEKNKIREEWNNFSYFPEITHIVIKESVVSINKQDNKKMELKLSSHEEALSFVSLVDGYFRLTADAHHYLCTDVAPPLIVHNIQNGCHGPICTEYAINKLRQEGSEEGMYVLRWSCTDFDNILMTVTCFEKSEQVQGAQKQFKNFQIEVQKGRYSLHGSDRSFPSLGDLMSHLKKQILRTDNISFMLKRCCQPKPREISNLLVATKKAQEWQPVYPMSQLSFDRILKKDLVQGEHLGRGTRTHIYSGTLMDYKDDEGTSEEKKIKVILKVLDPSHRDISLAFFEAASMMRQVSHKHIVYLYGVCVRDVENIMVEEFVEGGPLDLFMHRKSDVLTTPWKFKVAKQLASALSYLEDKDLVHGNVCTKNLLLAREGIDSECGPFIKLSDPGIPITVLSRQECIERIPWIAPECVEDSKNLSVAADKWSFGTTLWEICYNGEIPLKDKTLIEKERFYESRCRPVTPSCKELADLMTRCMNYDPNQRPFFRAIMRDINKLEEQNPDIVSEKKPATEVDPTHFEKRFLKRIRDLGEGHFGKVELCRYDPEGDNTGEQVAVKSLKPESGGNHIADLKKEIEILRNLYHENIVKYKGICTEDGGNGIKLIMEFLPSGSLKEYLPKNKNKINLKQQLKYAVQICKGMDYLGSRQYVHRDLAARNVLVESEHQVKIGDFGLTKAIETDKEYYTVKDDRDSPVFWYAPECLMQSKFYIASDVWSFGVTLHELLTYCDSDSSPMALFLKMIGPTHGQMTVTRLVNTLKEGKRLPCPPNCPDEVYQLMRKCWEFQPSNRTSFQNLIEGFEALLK
Method: as §1, §2

JAK3 = JAK3 (Homo sapiens (Human), UniProt P52333); assay: Inhibition of JAK3, luminescence kinase assay (ADP-Glo); conditions: purified recombinant JAK3
Sequence of JAK3 (P52333 whole entry): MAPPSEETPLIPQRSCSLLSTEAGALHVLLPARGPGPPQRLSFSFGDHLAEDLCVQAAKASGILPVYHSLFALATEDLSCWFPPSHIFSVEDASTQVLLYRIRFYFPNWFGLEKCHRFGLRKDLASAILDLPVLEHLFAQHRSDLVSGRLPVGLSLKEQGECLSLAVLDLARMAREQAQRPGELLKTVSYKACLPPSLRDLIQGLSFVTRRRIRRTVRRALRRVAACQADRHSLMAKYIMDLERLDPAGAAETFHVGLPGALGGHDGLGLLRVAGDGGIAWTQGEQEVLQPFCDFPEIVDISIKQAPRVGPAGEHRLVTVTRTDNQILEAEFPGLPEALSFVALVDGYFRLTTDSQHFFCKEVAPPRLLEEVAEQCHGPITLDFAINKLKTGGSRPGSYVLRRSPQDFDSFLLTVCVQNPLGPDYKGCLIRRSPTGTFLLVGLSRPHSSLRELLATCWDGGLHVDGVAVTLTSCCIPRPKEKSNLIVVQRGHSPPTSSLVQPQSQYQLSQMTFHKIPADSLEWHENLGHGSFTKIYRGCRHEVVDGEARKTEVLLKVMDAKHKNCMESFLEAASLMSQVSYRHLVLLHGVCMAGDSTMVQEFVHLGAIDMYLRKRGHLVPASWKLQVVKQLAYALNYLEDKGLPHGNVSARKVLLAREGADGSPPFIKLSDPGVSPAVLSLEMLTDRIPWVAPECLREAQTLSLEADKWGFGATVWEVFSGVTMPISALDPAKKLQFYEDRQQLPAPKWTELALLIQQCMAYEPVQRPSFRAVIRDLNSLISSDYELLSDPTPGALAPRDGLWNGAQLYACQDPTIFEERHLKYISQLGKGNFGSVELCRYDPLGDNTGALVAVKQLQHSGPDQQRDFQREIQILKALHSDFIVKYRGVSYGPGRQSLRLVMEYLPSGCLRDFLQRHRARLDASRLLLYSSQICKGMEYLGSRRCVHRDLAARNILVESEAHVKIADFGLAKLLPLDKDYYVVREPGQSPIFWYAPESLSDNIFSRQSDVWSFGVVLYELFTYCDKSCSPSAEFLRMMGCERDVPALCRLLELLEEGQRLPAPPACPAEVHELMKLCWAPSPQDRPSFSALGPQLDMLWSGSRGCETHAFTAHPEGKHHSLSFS
Method: as §1, §2

Sequence of JAK2 (O60674 whole entry): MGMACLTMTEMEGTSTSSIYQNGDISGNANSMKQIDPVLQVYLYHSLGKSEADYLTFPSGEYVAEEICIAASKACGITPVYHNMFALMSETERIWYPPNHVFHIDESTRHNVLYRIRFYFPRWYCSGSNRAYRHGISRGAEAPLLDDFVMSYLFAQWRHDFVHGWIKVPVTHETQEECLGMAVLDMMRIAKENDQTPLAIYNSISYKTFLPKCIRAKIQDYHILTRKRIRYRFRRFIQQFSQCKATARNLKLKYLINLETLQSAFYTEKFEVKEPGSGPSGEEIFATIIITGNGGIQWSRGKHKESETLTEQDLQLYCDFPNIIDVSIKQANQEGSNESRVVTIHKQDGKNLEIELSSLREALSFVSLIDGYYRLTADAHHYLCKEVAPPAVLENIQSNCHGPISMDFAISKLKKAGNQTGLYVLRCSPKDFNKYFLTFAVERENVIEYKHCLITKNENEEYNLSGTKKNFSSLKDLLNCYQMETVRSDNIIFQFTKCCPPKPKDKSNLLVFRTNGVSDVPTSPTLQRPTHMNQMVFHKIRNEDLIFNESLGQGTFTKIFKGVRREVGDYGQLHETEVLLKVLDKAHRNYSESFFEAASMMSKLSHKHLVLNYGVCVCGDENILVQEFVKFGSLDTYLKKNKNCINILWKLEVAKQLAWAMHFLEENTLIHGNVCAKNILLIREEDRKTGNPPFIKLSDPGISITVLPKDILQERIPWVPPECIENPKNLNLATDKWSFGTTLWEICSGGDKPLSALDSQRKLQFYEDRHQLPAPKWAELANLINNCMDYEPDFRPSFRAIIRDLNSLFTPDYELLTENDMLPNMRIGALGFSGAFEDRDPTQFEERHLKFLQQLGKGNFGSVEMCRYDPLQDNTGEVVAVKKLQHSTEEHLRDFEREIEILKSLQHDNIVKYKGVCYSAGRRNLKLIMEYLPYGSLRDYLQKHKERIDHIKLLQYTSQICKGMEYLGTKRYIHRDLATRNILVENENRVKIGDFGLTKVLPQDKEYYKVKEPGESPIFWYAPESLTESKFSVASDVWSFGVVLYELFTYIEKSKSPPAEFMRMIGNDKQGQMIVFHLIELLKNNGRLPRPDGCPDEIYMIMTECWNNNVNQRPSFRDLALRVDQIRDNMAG

Row | SMILES | IC50 (JAK2) | IC50 (JAK1) | IC50 (JAK3)
1 | CCS(=O)(=O)N1CC(CC#N)(n2cc(-c3c[nH]c4ncccc34)cn2)C1 [Example 1, 2-(3-(4-(1H-pyrrolo[2,3-b]pyridin-3-yl)-1H-pyrazol-1-yl)-1-(ethylsulfonyl)azetidin-3-yl)acetonitrile] | 20 to 50 nM |  | 
2 | N#CCC1(n2cc(-c3c[nH]c4ncccc34)cn2)CCS(=O)(=O)CC1 [Example 2, 2-(4-(4-(1H-pyrrolo[2,3-b]pyridin-3-yl)-1H-pyrazol-1-yl)-1,1-dioxotetrahydro-2H-thiopyran-4-yl)acetonitrile] | 20 to 50 nM | < 20 nM | > 50 nM
3 | N#CCC1(n2cc(-c3ccnc4[nH]ccc34)cn2)CCS(=O)(=O)CC1 [Example 4, 2-(4-(4-(1H-pyrrolo[2,3-b]pyridin-4-yl)-1H-pyrazol-1-yl)-1,1-dioxotetrahydro-2H-thiopyran-4-yl)acetonitrile] | < 20 nM | < 20 nM | > 50 nM
4 | CCS(=O)(=O)N1CC(CC(=O)NC)(n2cc(-c3ccnc4[nH]ccc34)cn2)C1 [Example 10, 2-(3-(4-(1H-pyrrolo[2,3-b]pyridin-4-yl)-1H-pyrazol-1-yl)-1-(ethylsulfonyl)azetidin-3-yl)-N-methylacetamide] | > 50 nM | > 50 nM | > 50 nM
5 | CCS(=O)(=O)N1CC(CC(N)=O)(n2cc(-c3ccnc4[nH]ccc34)cn2)C1 [Example 11, 2-(3-(4-(1H-pyrrolo[2,3-b]pyridin-4-yl)-1H-pyrazol-1-yl)-1-(ethylsulfonyl)azetidin-3-yl)acetamide] | > 50 nM | > 50 nM | > 50 nM
6 | CNC(=O)CC1(n2cc(-c3ncnc4[nH]ccc34)cn2)CN(S(C)(=O)=O)C1 [Example 13, 2-(3-(4-(7H-pyrrolo[2,3-d]pyrimidin-4-yl)-1H-pyrazol-1-yl)-1-(methylsulfonyl)azetidin-3-yl)-N-methylacetamide] | > 50 nM | > 50 nM | > 50 nM
7 | CS(=O)(=O)N1CC(CC(N)=O)(n2cc(-c3ncnc4[nH]ccc34)cn2)C1 [Example 14, 2-(3-(4-(7H-pyrrolo[2,3-d]pyrimidin-4-yl)-1H-pyrazol-1-yl)-1-(methylsulfonyl)azetidin-3-yl) acetamide] | 20 to 50 nM | 20 to 50 nM | > 50 nM
8 | NC(=O)CC1(n2cc(-c3c[nH]c4ncccc34)cn2)CCS(=O)(=O)CC1 [Example 18, 2-(4-(4-(1H-pyrrolo[2,3-b]pyridin-3-yl)-1H-pyrazol-1-yl)-1,1-dioxotetrahydro-2H-thiopyran-4-yl)acetamide] | > 50 nM | < 20 nM | < 20 nM
9 | O=C(CC1(n2cc(-c3ncnc4[nH]ccc34)cn2)CCS(=O)(=O)CC1)NCC(F)(F)F [Example 20, 2-(4-(4-(7H-pyrrolo[2,3-d]pyrimidin-4-yl)-1H-pyrazol-1-yl)-1,1-dioxotetrahydro-2H-thiopyran-4-yl)-N-(2,2,2-trifluoroethyl)acetamide] | > 50 nM | 20 to 50 nM | > 50 nM
10 | O=C(CC1(n2cc(-c3ncnc4[nH]ccc34)cn2)CCCC1)NCC(F)(F)F [Example 26, 2-(1-(4-(1H-pyrrolo[2,3-b]pyrimidin-4-yl)-1H-pyrazol-1-yl)cyclopentyl)-N-(2,2,2-trifluoroethyl)acetamide] |  | 20 to 50 nM | 
11 | CS(=O)(=O)N1CC(Nc2ccnc(-c3c[nH]c4ncccc34)n2)(C(=O)NCC(F)(F)F)C1 [Example 31, 3-((2-(1H-pyrrolo[2,3-b]pyridin-3-yl)pyrimidin-4-yl)amino)-1-(methylsulfonyl)-N-(2,2,2-trifluoroethyl)azetidin-3-carboxamide] | > 50 nM | > 50 nM | 
12 | CCS(=O)(=O)N1CC(Nc2ccnc(-c3c[nH]c4ncccc34)n2)(C(=O)NCC(F)(F)F)C1 [Example 32, 3-((2-(1H-pyrrolo[2,3-b]pyridin-3-yl)pyrimidin-4-yl)amino)-1-(ethylsulfonyl)-N-(2,2,2-trifluoroethyl)azetidin-3-carboxamide] | > 50 nM | > 50 nM | 
13 | CS(=O)(=O)N1CC(Nc2nc(-c3c[nH]c4ncccc34)ncc2F)(C(=O)NCC(F)(F)F)C1 [Example 34] | > 50 nM | > 50 nM | 
14 | O=C(NCC(F)(F)F)C1(Nc2nc(-c3c[nH]c4ncccc34)ncc2F)CCS(=O)(=O)CC1 [Example 44, 4-((5-fluoro-2-(1H-pyrrolo[2,3-b]pyridin-3-yl)pyrimidin-4-yl)amino)-N-(2,2,2-trifluoroethyl)tetrahydro-2H-thiopyran-4-carboxamide 1,1-dioxide] | 20 to 50 nM | > 50 nM | 
15 | CCS(=O)(=O)N1CC(C#N)(Nc2ccnc(-c3ccnc4[nH]ccc34)n2)C1 [Example 47, 3-((2-(1H-pyrrolo[2,3-b]pyridin-4-yl)pyrimidin-4-yl)amino)-1-(ethylsulfonyl)azetidine-3-carbonitrile] |  |  | 20 to 50 nM

Next, values leading:

Row | IC50 (JAK2) | IC50 (JAK1) | IC50 (JAK3) | SMILES
16 |  | < 20 nM | < 20 nM | CS(=O)(=O)N1CCC(CC#N)(n2cc(-c3c[nH]c4ncccc34)cn2)CC1 [Example 5]
17 | > 50 nM | > 50 nM | > 50 nM | CCS(=O)(=O)N1CC(CC(N)=O)(n2cc(-c3c[nH]c4ncccc34)cn2)C1 [Example 6, 2-(3-(4-(1H-pyrrolo[2,3-b]pyridin-3-yl)-1H-pyrazol-1-yl)-1-(ethylsulfonyl)azetidin-3-yl)acetamide]
18 | > 50 nM | > 50 nM | > 50 nM | CCS(=O)(=O)N1CC(CC(=O)NCC(F)(F)F)(n2cc(-c3c[nH]c4ncccc34)cn2)C1 [Example 7, 2-(3-(4-(1H-pyrrolo[2,3-b]pyridin-3-yl)-1H-pyrazol-1-yl)-1-(ethylsulfonyl)azetidin-3-yl)-N-(2,2,2-trifluoroethyl)acetamide]
19 | > 50 nM | > 50 nM | > 50 nM | CCS(=O)(=O)N1CC(CC(=O)NCC(F)(F)F)(n2cc(-c3ncnc4[nH]ccc34)cn2)C1 [Example 8, 2-(3-(4-(1H-pyrrolo[2,3-d]pyrimidin-4-yl)-1H-pyrazol-1-yl)-1-(ethylsulfonyl)azetidin-3-yl)-N-(2,2,2-trifluoroethyl)acetamide]
20 | > 50 nM | > 50 nM | > 50 nM | CCS(=O)(=O)N1CC(CC(=O)NCC(F)(F)F)(n2cc(-c3ccnc4[nH]ccc34)cn2)C1 [Example 9, 2-(3-(4-(1H-pyrrolo[2,3-b]pyridin-4-yl)-1H-pyrazol-1-yl)-1-(ethylsulfonyl)azetidin-3-yl)-N-(2,2,2-trifluoroethyl)acetamide]
21 | 20 to 50 nM | 20 to 50 nM | > 50 nM | CS(=O)(=O)N1CC(CC(=O)NCC(F)(F)F)(n2cc(-c3ncnc4[nH]ccc34)cn2)C1 [Example 12, 2-(3-(4-(7H-pyrrolo[2,3-d]pyrimidin-4-yl)-1H-pyrazol-1-yl)-1-(methylsulfonyl)azetidin-3-yl)-N-(2,2,2-trifluoroethyl)acetamide]
22 | 20 to 50 nM | < 20 nM | < 20 nM | CS(=O)(=O)N1CC(CC(=O)NCC(F)(F)F)(n2cc(-c3ccnc4[nH]ccc34)cn2)C1 [Example 15, 2-(3-(4-(1H-pyrrolo[2,3-b]pyridin-4-yl)-1H-pyrazol-1-yl)-1-(methylsulfonyl)azetidin-3-yl)-N-(2,2,2-trifluoroethyl)acetamide]
23 | > 50 nM | 20 to 50 nM | > 50 nM | O=C(CC1(n2cc(-c3c[nH]c4ncccc34)cn2)CCS(=O)(=O)CC1)NCC(F)(F)F [Example 19, 2-(4-(4-(1H-pyrrolo[2,3-b]pyridin-3-yl)-1H-pyrazol-1-yl)-1,1-dioxotetrahydro-2H-thiopyran-4-yl)-N-(2,2,2-trifluoroethyl)acetamide]
24 | > 50 nM | 20 to 50 nM | > 50 nM | O=C(CC1(n2cc(-c3ccnc4[nH]ccc34)cn2)CCS(=O)(=O)CC1)NCC(F)(F)F [Example 21, 2-(4-(4-(7H-pyrrolo[2,3-b]pyridin-4-yl)-1H-pyrazol-1-yl)-1,1-dioxotetrahydro-2H-thiopyran-4-yl)-N-(2,2,2-trifluoroethyl)acetamide]
25 | > 50 nM | > 50 nM | > 50 nM | CS(=O)(=O)N1CCC(CC(=O)NCC(F)(F)F)(n2cc(-c3c[nH]c4ncccc34)cn2)CC1 [Example 22, 2-(4-(4-(7H-pyrrolo[2,3-b]pyridin-3-yl)-1H-pyrazol-1-yl)-1-(methylsulfonyl)piperidin-4-yl)-N-(2,2,2-trifluoroethyl)acetamide]
26 | > 50 nM | 20 to 50 nM | > 50 nM | CS(=O)(=O)N1CCC(CC(=O)NCC(F)(F)F)(n2cc(-c3ncnc4[nH]ccc34)cn2)CC1 [Example 23, 2-(4-(4-(7H-pyrrolo[2,3-b]pyrimidin-4-yl)-1H-pyrazol-1-yl)-1-(methylsulfonyl)piperidin-4-yl)-N-(2,2,2-trifluoroethyl)acetamide]
27 |  | 20 to 50 nM | 20 to 50 nM | O=C(CC1(n2cc(-c3c[nH]c4ncccc34)cn2)CCCC1)NCC(F)(F)F [Example 25, 2-(1-(4-(1H-pyrrolo[2,3-b]pyridin-3-yl)-1H-pyrazol-1-yl)cyclopentyl)-N-(2,2,2-trifluoroethyl) acetamide]
28 |  |  | 20 to 50 nM | CCS(=O)(=O)N1CCC(Nc2ccnc(-c3c[nH]c4ncccc34)n2)(C(=O)NCC(F)(F)F)CC1 [Example 38, 4-((2-(1H-pyrrolo[2,3-b]pyridin-3-yl)pyrimidin-4-yl)amino)-1-(ethylsulfonyl)-N-(2,2,2-trifluoroethyl)piperidin-4-carboxamide]
